Assay results from US20240269145A1, “USE OF INDOLE COMPOUND AS INHIBITORS OF FERROPTOSIS” (MITOIMMUNE THERAPEUTICS INC., priority 2023, published 2024).

Tests used:
Assay type in all cases: cell-based
PC-12 cells = assay: Mitochondrial iron ion accumulation (Mito-FerroGreen, images) after RSL3; details: PC-12, RSL3 0.3 μM, 30 minutes; Example Compound 1 1 μM, DFO 10 μM
Experimental: (§1) Experimental Example 9-1: To confirm the inhibitory effect against mitochondrial iron ion accumulation in lung epithelial cells and adrenal medulla cells, 3×10^5 MLE-12 cells and PC-12 cells were each dispensed into a confocal dish and cultured for 18 to 24 hours. Each well was treated with Example Compound 1 and DFO, which were diluted so that their final concentration became 1 μM and 10 μM, respectively, and culture was performed for 20 minutes. Afterwards, the MLE-12 cells were treated with RSL3 so that the final concentration became 1 μM, and cultured for 1 hour and 30 minutes, and the PC-12 cells were treated with RSL3 so that the final concentration became 0.3 μM, and cultured for 30 minutes. To confirm the inhibitory effect against mitochondrial iron ion accumulation, Mito-FerroGreen [DOJINDO; M489] was used. According to the manufacturer's experimental method, Mito-FerroGreen was diluted in the cell culture medium so that the final concentration became 1 μM, and the cells were treated therewith and allowed to react for 30 minutes to perform fluorescent staining. The cells fluorescently stained with Mito-FerroGreen were observed using a fluorescence microscope [Carl Zeiss; Axio Observer 7] to investigate the change in fluorescence (excitation/absorption 450 to 490 nm/500 to 550 nm) compared to the control group (RSL3 untreated group).

MLE-12 cells = assay: as above; details: MLE-12, RSL3 1 μM, 1 hour 30 minutes; Example Compound 1 1 μM, DFO 10 μM
Experimental: as §1

H9C2 cells [1] = assay: Mitochondrial morphological changes (TEM) after erastin; details: H9C2, 5 μM erastin, 10 μM compound, 5 hours
Experimental: To confirm whether Example Compound 1 may inhibit mitochondrial morphological changes due to ferroptosis, an experiment was performed using a transmission electron microscope (TEM). To collect cardiac cell samples, 1.3×10^6 H9C2 cells were cultured in a 150 mm cell culture dish for 4 days, and the culture medium was replaced with fresh culture medium on the second day. After treating the cells with Example Compound 1 at a final concentration of 10 µM for 30 minutes, an erastin-only treatment group was treated with a culture medium including 5 μM erastin; an erastin-Example Compound 1 treatment group was treated with a culture medium including 5 μM erastin and 10 μM Example Compound 1; and the V.C group was treated with a culture medium including the same amount of DMSO, and each group was treated for 5 hours. Afterwards, the supernatant was discarded, and the cells were washed with a 37° C. PBS solution three times. 10 mL of a 2.5% glutaraldehyde solution diluted in PBS was added and treated at room temperature for 1 hour. After washing with PBS solution three times, the remaining PBS solution was completely removed using an aspirator. 1 mL of PBS solution was added to recover the cells with a plastic scraper, and the cells were transferred to a 1.5 mL tube. Cells were allowed to settle using a centrifuge (3000 rpm) for 5 minutes. […]

ARPE-19 cells = assay: Cytosolic lipid ROS after RSL3, Experimental Example 3-5; details: ARPE-19, RSL3 0.3 μM, 2 hr
Experimental: [The source words this procedure for another cell line and says it was used here with some conditions changed.] Experimental Example 3-1: To confirm the protective effect against cytosolic lipid reactive oxygen species in lung epithelial cells, 2×10^5 MLE-12 cells were dispensed into each well of a 12-well plate and cultured for 18 to 24 hours. Each well was treated with Example Compound 1 and ferrostatin-1, which were diluted so that their final concentration became 0.01, 0.1, 1, and 10 μM, and culture was performed for 15 minutes. Afterwards, the cells were treated so that the final concentration of RSL3 became 1 μM, and cultured for 2 hours. To confirm the inhibitory effect against cytosolic lipid reactive oxygen species, BODIPY™ 581/591 C11 (lipid peroxidation sensor) [Invitrogen™; D3861] was used. According to the manufacturer's experimental method, BODIPY™ 581/591 C11 was diluted in the cell culture medium so that the final concentration became 5 μM, and the cells were treated therewith and allowed to react for 30 minutes to perform fluorescent staining. The MLE-12 cells fluorescently stained with BODIPY™ 581/591 C11 were detached from the 12-well plate using 0.25% Trypsin-EDTA and transferred to a microtube, and the fluorescence (excitation/absorption 500 to 650 nm/510 to 665 nm) was measured using BD FACSLyric™ to calculate the rate of change compared to the control group. […]

H9C2 cells [2] = assay: Mitochondrial iron ion accumulation (Mito-FerroGreen, images) after erastin; details: H9C2, erastin 5 μM, 5 hr; Example Compound 1 1 μM, DFO 100 μM
Experimental: [The source words this procedure for another cell line and says it was used here with some conditions changed.] as §1, with “group). […]” for “group).”

SMILES: O=S1(=O)CCN(Cc2cc(NC3CCOCC3)c3[nH]c(-c4ccccc4)cc3c2)CC1 [Example 1, 5-[(1,1-dioxido-4-thiomorpholinyl)methyl]-2-phenyl-N-(tetrahydro-2H-pyran-4-yl)-1H-indole-7-amine]
- mitochondrial iron ion accumulation (images) (PC-12 cells): decrease was confirmed
- mitochondrial iron ion accumulation (images) (MLE-12 cells): decrease was confirmed
- mitochondrial morphological changes (size decrease, cristae loss, outer membrane collapse), TEM (H9C2 cells [1]): alleviated
- concentration at which lipid reactive oxygen species are inhibited (ARPE-19 cells): 0.01 µM
- mitochondrial iron ion accumulation (images) (H9C2 cells [2]): inhibited
